Counter-ions that a name gives are not always drawn. Like-named read-outs stand apart in the source and are kept apart here.
Assays:
Eubacterium aerofaciens = assay: agar-dilution MIC vs. anaerobic bacteria; assay type: cell-based; settings: strain 1235; Table 6; disodium salt, monohydrate
Fusobacterium symbiosum = assay: agar-dilution MIC vs. anaerobic bacteria; assay type: cell-based; settings: strain 1470; Table 6; disodium salt, monohydrate
Staphylococcus aureus = assay: disc-plate screening procedure, zone of inhibition
Actinomyces israellii = assay: agar-dilution MIC vs. anaerobic bacteria; assay type: cell-based; settings: strain W855; Table 6; disodium salt, monohydrate
Protocol: (§1) The agar-dilution procedure described by the International Collaborative Study (ICS) group was used to determine MIC values.
The MIC was determined by the agar-dilution method.

[1] = test system: Fusobacterium necrophorum; assay: agar-dilution MIC vs. anaerobic bacteria; assay type: cell-based; settings: strain 6054A; Table 6; disodium salt, monohydrate
Bacteroides fragilis [2] = assay: agar-dilution MIC vs. anaerobic bacteria; assay type: cell-based; settings: Table 6, disodium salt, monohydrate
Bacteroides vulgatis = assay: agar-dilution MIC vs. anaerobic bacteria; assay type: cell-based; settings: strain 1211; Table 6; disodium salt, monohydrate
Clostridium perfringens = assay: microbe, parasite or virus in culture; assay type: cell-based; settings: strain 81; Table 6; disodium salt, monohydrate
Streptococcus pyogenes = assay: disc-plate screening procedure, zone of inhibition; settings: read-out: Zone Diameter
Streptococcus pneumoniae = assay: disc-plate screening procedure, zone of inhibition; settings: read-out: Zone Diameter
hygroscopicity = assay type: physicochemical; settings: monohydrate, brown powder
[3] = test system: Peptococcus asaccharolyticus; assay: agar-dilution MIC vs. anaerobic bacteria; assay type: cell-based; settings: strain 1302; Table 6; disodium salt, monohydrate
[4] = test system: Bacteroides melanogenicus; assay: agar-dilution MIC vs. anaerobic bacteria; assay type: cell-based; settings: Table 6, disodium salt, monohydrate
Trichomonas vaginalis = assay: broth dilution assay, antitrichomonal activity; assay type: cell-based; settings: Trichomonas vaginalis; broth dilution assay; read-out: Minimal Inhibitory Concentration
[5] = test system: Streptococcus sp. (Group D); assay: disc-plate screening procedure, zone of inhibition; settings: read-out: Zone Diameter
Propionibacterium acnes = assay: agar-dilution MIC vs. anaerobic bacteria; assay type: cell-based; settings: strain 79; Table 6; disodium salt, monohydrate
B. corrodens = assay: agar-dilution MIC vs. Bacteroides species; assay type: cell-based; settings: B. corrodens 1874; 24 hours; Table 8; disodium salt, monohydrate
Protocol: as §1
(§2) The MIC values were determined by the agar-dilution method, the endpoints being read 24 hours after incubation, and are recorded in Table 8, which follows.

Bacteroides fragilis [6] = assay: agar-dilution MIC vs. Bacteroides species; assay type: cell-based; settings: 24 hours, Table 8, disodium salt, monohydrate
Protocol: as §1, §2

B. vulgatis = assay: agar-dilution MIC vs. Bacteroides species; assay type: cell-based; settings: B. vulgatis 1563; 24 hours; Table 8; disodium salt, monohydrate
Protocol: as §1, §2

B. thetaiotaomicron = assay: agar-dilution MIC vs. Bacteroides species; assay type: cell-based; settings: 24 hours, Table 8, disodium salt, monohydrate
Protocol: as §1, §2

[7] = test system: Peptostreptococcus anaerobius; assay: agar-dilution MIC vs. Peptococcus and Peptostreptococcus species; assay type: cell-based; settings: Table 9, disodium salt, monohydrate
Protocol: as §1
(§3) The MIC values were determined by the agar-dilution method, and are recorded in Table 9, which follows.

Peptococcus constellatus = assay: as above; assay type: cell-based; settings: Pc. constellatus 1468; Table 9; disodium salt, monohydrate
Protocol: as §1, §3

Peptococcus prevoti = assay: as above; assay type: cell-based; settings: Table 9, disodium salt, monohydrate
Protocol: as §1, §3

[8] = test system: Peptostreptococcus intermedius; assay: as above; assay type: cell-based; settings: Table 9, disodium salt, monohydrate
Protocol: as §1, §3

Peptococcus magnus = assay: as above; assay type: cell-based; settings: Table 9, disodium salt, monohydrate
Protocol: as §1, §3

[9] = test system: Peptococcus asaccharolyticus; assay: as above; assay type: cell-based; settings: Table 9, disodium salt, monohydrate
Protocol: as §1, §3

Cc1cccc(O)c1C(=O)OC(C)c1cccc2nc3c(C(=O)O)cccc3nc12 (stereo not shown) [A-32256 disodium salt, 6-[1-[(2-hydroxy-6-methylbenzoyl)oxy]ethyl]-1-phenazinecarboxylic acid, disodium salt, monohydrate]
MIC (Eubacterium aerofaciens): ≤ 0.5 mg/L
MIC (Fusobacterium symbiosum): ≤ 0.5 mg/L
zone of inhibition at 10 µg/disc (Staphylococcus aureus; read-out: Zone Diameter, S. aureus 3055, benzylpenicillin-susceptible, 10 mcg/disc): 17.8 mm
zone of inhibition at 100 µg/disc (Staphylococcus aureus; read-out: Zone Diameter, S. aureus 3055, benzylpenicillin-susceptible, 100 mcg/disc): 25.2 mm
zone of inhibition at 10 µg/disc (Staphylococcus aureus; read-out: Zone Diameter, S. aureus 3074, benzylpenicillin-resistant, 10 mcg/disc): 16.2 mm
zone of inhibition at 100 µg/disc (Staphylococcus aureus; read-out: Zone Diameter, S. aureus 3074, benzylpenicillin-resistant, 100 mcg/disc): 23.3 mm
zone of inhibition at 10 µg/disc (Staphylococcus aureus; read-out: Zone Diameter, S. aureus 3130, methicillin-resistant, 10 mcg/disc): 19.8 mm
zone of inhibition at 100 µg/disc (Staphylococcus aureus; read-out: Zone Diameter, S. aureus 3130, methicillin-resistant, 100 mcg/disc): 26.8 mm
MIC (Actinomyces israellii): ≤ 0.5 mg/L
MIC [1]: 1.0 mg/L
MIC (Bacteroides fragilis [2]; strain 111): ≤ 0.5 mg/L
MIC (Bacteroides fragilis [2]; strain 1877): ≤ 0.5 mg/L
MIC (Bacteroides fragilis [2]; strain 1936B): ≤ 0.5 mg/L
MIC (Bacteroides vulgatis): ≤ 0.5 mg/L
MIC (Clostridium perfringens): 1.0 mg/L
zone of inhibition at 10 µg/disc (Streptococcus pyogenes): 17 mm
zone of inhibition at 100 µg/disc (Streptococcus pyogenes): 21 mm
zone of inhibition at 10 µg/disc (Streptococcus pneumoniae): 25 mm
zone of inhibition at 100 µg/disc (Streptococcus pneumoniae): 31 mm
hygroscopicity (hygroscopicity): hygroscopic
MIC [3]: ≤ 0.5 mg/L
MIC ([4]; strain 1856/28): 32 mg/L
MIC ([4]; strain 2736): ≤ 0.5 mg/L
MIC (Trichomonas vaginalis): < 0.975 mg/L
zone of inhibition at 10 µg/disc [5]: 15.6 mm
zone of inhibition at 100 µg/disc [5]: 20.4 mm
MIC (Propionibacterium acnes): ≤ 0.5 mg/L
MIC (B. corrodens): ≤ 0.015 mg/L
MIC (Bacteroides fragilis [6]; B. fragilis 2): ≤ 0.015 mg/L
MIC (Bacteroides fragilis [6]; B. fragilis 9): ≤ 0.015 mg/L
MIC (Bacteroides fragilis [6]; B. fragilis 62): ≤ 0.015 mg/L
MIC (Bacteroides fragilis [6]; B. fragilis 103): ≤ 0.015 mg/L
MIC (Bacteroides fragilis [6]; B. fragilis 104): ≤ 0.015 mg/L
MIC (Bacteroides fragilis [6]; B. fragilis 106): ≤ 0.015 mg/L
MIC (Bacteroides fragilis [6]; B. fragilis 107): 0.03 mg/L
MIC (Bacteroides fragilis [6]; B. fragilis 108): ≤ 0.015 mg/L
MIC (Bacteroides fragilis [6]; B. fragilis 110): ≤ 0.015 mg/L
MIC (Bacteroides fragilis [6]; B. fragilis 111): 0.03 mg/L
MIC (Bacteroides fragilis [6]; B. fragilis 112): ≤ 0.015 mg/L
MIC (Bacteroides fragilis [6]; B. fragilis 113): ≤ 0.015 mg/L
MIC (Bacteroides fragilis [6]; B. fragilis 1470): ≤ 0.015 mg/L
MIC (Bacteroides fragilis [6]; B. fragilis 1877): ≤ 0.015 mg/L
MIC (Bacteroides fragilis [6]; V. fragilis 1451 (so in the source)): 0.03 mg/L
MIC (B. vulgatis): 0.03 mg/L
MIC (B. thetaiotaomicron; B. thetaiotaomicron 1438): 0.03 mg/L
MIC (B. thetaiotaomicron; B. thetaiotaomicron 1900A): 0.03 mg/L
MIC ([7]; Ps. anaerobius 8): 0.25 mg/L
MIC ([7]; Ps. anaerobius 52): 0.5 mg/L
MIC ([7]; Ps. anaerobius 59): ≤ 0.06 mg/L
MIC ([7]; Ps. anaerobius 1418): ≤ 0.06 mg/L
MIC ([7]; Ps. anaerobius 1428): 0.25 mg/L
MIC ([7]; Ps. anaerobius 1451): ≤ 0.06 mg/L
MIC ([7]; Ps. anaerobius 1477): 0.125 mg/L
MIC (Peptococcus constellatus): 0.5 mg/L
MIC (Peptococcus prevoti; Pc. prevoti 1281): 0.125 mg/L
MIC (Peptococcus prevoti; Pc. prevoti 1293): 0.125 mg/L
MIC (Peptococcus prevoti; Pc. prevoti 1407): 0.5 mg/L
MIC ([8]; Ps. intermedius 1264): ≤ 0.06 mg/L
MIC ([8]; Ps. intermedius 1624): ≤ 0.06 mg/L
MIC (Peptococcus magnus; Pc. magnus 1401): 0.125 mg/L
MIC (Peptococcus magnus; Pc. magnus 1421): 0.125 mg/L
MIC (Peptococcus magnus; Pc. magnus 1477): 0.125 mg/L
MIC ([9]; Pc. asaccharolyticus 1302): ≤ 0.06 mg/L
MIC ([9]; Pc. asaccharolyticus 1344): ≤ 0.06 mg/L

— patent publication US4400510A, “A-32256 Phenazine antibiotic” (Eli Lilly and Company, priority 1981, dated 1983)
